According to US9856304B2, “Peptide and application thereof” (Saitama Medical University, priority 2013, dated 2018):

Tested on: MIN6 cells (pancreatic β cell line)
Assay: EdU cell proliferation assay, growth promotion of pancreatic β cells (2), versus culture supernatants
Format: cell-based
Details: betagenin 1 nM, compared with IBCAP culture supernatant and Mock culture supernatant (0.5 μL/well), Mock taken as 1.0, FIG. 4
Method: MIN6 cells provided by Dr. Miyazaki at Osaka University were used as a pancreatic β cell line. MIN6 cells were maintained in a DMEM culture medium with added 15% (v/v) of FBS.
A DMSO solution was prepared so that the concentration of chemically synthesized betagenin was 97% of purity, as a pancreatic hormone-producing cell growth-promoting agent.
First, HEK293T cells passaged in a DMEM culture medium with added 5% FBS and antibiotics (penicillin 100 U/mL, streptomycin […]) were plated on a 10 cm dish at 1×10^6 cells. On the next day, HEK293T cells were transfected with an expression vector (pCAGGS-IBCAP) constructed by ligating the gene encoding the IBCAP (=Betagenin) set forth in SEQ ID NO: 2 (which is corresponds to human TM4SF20, and hereinafter referred to “IBCAP.”) using FuGEN6 (Roche) to overexpression of IBCAP. The culture medium was replaced with an Opti-MEM culture medium 24 hours after that, and a culture supernatant was then collected another 24 hours after that, which was then used as an IBCAP culture supernatant for the subsequent experiments. […]
The incorporated EdU was visualized as red fluorescence using Alexa Flour™ 594, and observed with a fluorescence microscope (Carl Zeiss).

“betagenin: chemically synthesized peptide of SEQ ID NO: 1, fragment of human TM4SF20 from Position 170 to Position 229 (WRASSFHFDSEENKHRLIHFSVFLGLLLVGILEVLFGLSQIVIGFLGCLCGVSKRRSQIV; Peptide Sequence betagenin; listed as Homo sapiens)” was tested, and the “relative EdU fluorescence intensity” value was “significantly increased”.
